{"source": "patent EP0499581B1", "about": "“Stabilized polymer composition” (Ciba Specialty Chemicals Holding Inc., priority 1991, dated 1992)", "assay_type_in_all_cases": "physicochemical", "key": {"[1]": {"assay": "Yellowing (ASTM D 1925) after UV exposure in Weather-O-meter WRC 600, ABS/SAN/polycarbonate blend (Example 1)", "details": "Weather-O-meter WRC 600, 2 mm plates", "experimental": "Dieses Copolymer wird in Pulverform mit derselben Menge von Styrolacrylnitril-copolymer (Suspension SAN, Ube Cycon) und der doppelten Menge von pulverförmigem Polycarbonat (PC 135, General Electric), mit gegebenenfalls weiteren Additiven, wie z.B. einem UV-Absorber, in einem Rhönrad vermischt. Die Mischung wird in einem Zweischnecken-Extruder (Temperatur-Zyklus: 165°C, 250°C, 275°C, 275°C, 270°C; Umdrehungen/Minute: 45) hergestellt.\n(§1) Die erhaltenen Mischungen werden in einer Heizpresse bei 200°C zu 2 mm starken Platten gepresst. Aus den Platten werden Prüfkörper von 40 x 40 x 2 mm ausgeschnitten. Diese werden in einem Weather-O-meter® WRC 600 mit UV-Licht belichtet. In regelmässigen Abständen werden Proben entnommen und deren Vergilbung gemäss ASTM D 1925 gemessen.\nDie mit der Belichtungszeit einhergehende Vergilbung, ausgedrückt in ΔYI (YI = Yellowness Index; ΔYI = Unterschied in YI-Wert zwischen unbelichteter und entsprechender belichteter Probe) und nach der angegebenen Methode ermittelt, ist in der Tabelle 1 wiedergegeben."}, "[2]": {"assay": "Impact bending strength (ASTM D 4508-85) after UV exposure in Xenotest 450, ABS/SAN/polycarbonate blend (Example 2)", "design": "key to Schlagbiegefestigkeit in kJ/m^2 nach 200 Stunden in Xenotest 450: KB = Kein Bruch", "details": "energy required to break", "experimental": "(§2) Beispiel 2: Das ABS-Copolymer gemäss Beispiel 1 wird in Pulverform mit derselben Menge von Styrolacrylnitril-Copolymer (Suspension SAN, Kostil, Montedipe), mit gegebenenfalls weiteren Additiven, wie z.B. einem UV-Absorber (Tinuvin® 234, Ciba-Geigy AG) und einem Phosphit (Irgafos® 168, Ciba-Geigy AG), in einem Rhönrad vermischt. Die Mischung wird in einem Zweischnecken-Extruder (Temperatur-Zyklus : 210°C/ 210°C/ 215°C/ 220°C) verarbeitet und granuliert.\n(§3) Das erhaltene ABS-Granulat wird mit derselben Menge von Polycarbonat-Granulat (PC Calibre®, Dow) vermischt. Das Polymerblend wird in einem Zweischnecken-Extruder (Temperatur Zyklus : 240°C/ 240°C/ 250°C) hergestellt.\nWeitere Prüfkörper von 12,7 x 60,0 x 2,0 mm werden in einem Xenotest 450 mit UV-Licht belichtet. In regelmässigen Abständern werden Proben entnommen und deren Schlagbiegefestigkeit gemäss Methode ASTM D 4508-85 gemessen. Dabei erfolgt der Pendelschlag auf die belichtete Seite der Probe.\nIn Tabelle 3 ist die für den Bruch der Probe erforderliche Energie angegeben. Je höher dieser Wert ist, desto höher ist die Schlagbiegefestigkeit der Probe. Bei ungeschädigten Proben erfolgt kein Bruch."}, "[3]": {"assay": "Yellowing (ASTM D 1925) after UV exposure in Weather-Ometer WRC 600, ABS/SAN/polycarbonate blend (Example 2)", "details": "Weather-Ometer WRC 600, 2 mm plates", "experimental": "as §2, §3\nas §1, with “Mischungen (Blends)” for “Mischungen”, “Diese Plättchen” for “Diese”, “Weather-Ometer®” for “Weather-O-meter®”, “Vergilbung (oder Yellowness Index)” for “Vergilbung”, “gemäss Methode” for “gemäss”\nDie mit der Belichtungszeit einhergehende Vergilbung is in der Tabelle 2 wiedergegeben."}, "[4]": {"assay": "Yellowing (ASTM D 1925) after oven ageing, ABS/PBT blend (Example 3)", "experimental": "Beispiel 3: Das ABS-Copolymer Granulat gemäss Beispiel 2 wird mit derselben Menge Polybutylenterephtahlat, (PBT CRASTIN® S 600, Ciba-Geigy) vermischt. Das Polymerblend wird in einem Zweischnecken-Extruder (Temperatur-Zyklus: 210°C/230°C/ 235°C/ 240°C) hergestellt. Proben von 12,7 x 60,0 x 2,0 mm werden in einer Arburg-Spritzgussanlage gespritzt bei einer maximalen Verarbeitungstemperatur von 260°C. Diese Plättchen werden in einem Ofen bei 200°C und bei 160°C gealtert. In regelmässigen Abständen werden die Proben entnommen und deren Vergilbung gemäss ASTM D 1925 gemessen."}}, "data": [{"smiles": "CC(C)(c1ccccc1)c1cc(-n2nc3ccccc3n2)c(O)c(C(C)(C)c2ccccc2)c1", "note": "[0,3 % UV- Absorber *]", "values": [{"measurement": "Δ YI nach Belichtungszeit von 250 h", "setting": "[1]; 250 h UV", "result": "-7,0"}, {"measurement": "Δ YI nach Belichtungszeit von 500 h", "setting": "[1]; 500 h UV", "result": "-3,0"}, {"measurement": "Δ YI nach Belichtungszeit von 1000 h", "setting": "[1]; 1000 h UV", "result": "7,5"}, {"measurement": "Δ YI nach Belichtungszeit von 1250 h", "setting": "[1]; 1250 h UV", "result": "12,1"}, {"measurement": "Δ YI nach Belichtungszeit von 1500 h", "setting": "[1]; 1500 h UV", "result": "14,9"}]}, {"smiles": "CC(C)(c1ccccc1)c1cc(-n2nc3ccccc3n2)c(O)c(C(C)(C)c2ccccc2)c1", "note": "[0,50 % TINUVIN® 234]", "values": [{"measurement": "Schlagbiegefestigkeit in kJ/m^2 nach 200 Stunden in Xenotest 450", "setting": "[2]; 200 h Xenotest 450", "result": "KB"}, {"measurement": "Schlagbiegefestigkeit in kJ/m^2 nach 300 Stunden in Xenotest 450", "setting": "[2]; 300 h Xenotest 450", "result": "15±2", "unit": "kJ/m^2"}, {"measurement": "Schlagbiegefestigkeit in kJ/m^2 nach 500 Stunden in Xenotest 450", "setting": "[2]; 500 h Xenotest 450", "result": "13±1", "unit": "kJ/m^2"}, {"measurement": "Schlagbiegefestigkeit in kJ/m^2 nach 1000 Stunden in Xenotest 450", "setting": "[2]; 1000 h Xenotest 450", "result": "11±1", "unit": "kJ/m^2"}, {"measurement": "Schlagbiegefestigkeit in kJ/m^2 nach 1500 Stunden in Xenotest 450", "setting": "[2]; 1500 h Xenotest 450", "result": "11±1", "unit": "kJ/m^2"}, {"measurement": "Δ YI nach Belichtungszeit von 500 h", "setting": "[3]; 500 h UV", "result": -7}, {"measurement": "Δ YI nach Belichtungszeit von 1000 h", "setting": "[3]; 1000 h UV", "result": "1,1"}, {"measurement": "Δ (YI) nach Belichtungszeit von 2000 h", "setting": "[3]; 2000 h UV", "result": "16,1"}, {"measurement": "Δ (YI) nach Belichtungszeit von 3000 h", "setting": "[3]; 3000 h UV", "result": "23,4"}, {"measurement": "Δ (YI) nach Belichtungszeit von 4000 h", "setting": "[3]; 4000 h UV", "result": "23,9"}, {"measurement": "Δ YI nach Ofenalterung bei 160°C nach 60 min", "setting": "[4]; oven 160°C, 60 min", "result": "4,7"}, {"measurement": "Δ YI nach Ofenalterung bei 160°C nach 90 min", "setting": "[4]; oven 160°C, 90 min", "result": "10,8"}, {"measurement": "Δ YI nach Ofenalterung bei 160°C nach 120 min", "setting": "[4]; oven 160°C, 120 min", "result": "11,6"}, {"measurement": "Δ YI nach Ofenalterung bei 160°C nach 160 min", "setting": "[4]; oven 160°C, 160 min", "result": "20,4"}, {"measurement": "Δ YI nach Ofenalterung bei 160°C nach 840 min", "setting": "[4]; oven 160°C, 840 min", "result": "56,3"}, {"measurement": "Δ YI nach Ofenalterung bei 200°C nach 10 min", "setting": "[4]; oven 200°C, 10 min", "result": "6,0"}, {"measurement": "Δ YI nach Ofenalterung bei 200°C nach 20 min", "setting": "[4]; oven 200°C, 20 min", "result": "16,4"}, {"measurement": "Δ YI nach Ofenalterung bei 200°C nach 40 min", "setting": "[4]; oven 200°C, 40 min", "result": "33,1"}, {"measurement": "Δ YI nach Ofenalterung bei 200°C nach 60 min", "setting": "[4]; oven 200°C, 60 min", "result": "43,9"}, {"measurement": "Δ YI nach Ofenalterung bei 200°C nach 90 min", "setting": "[4]; oven 200°C, 90 min", "result": "55,3"}]}]}
